Values of other authors in PMC3975045 (ACS medicinal chemistry letters, 2013).

Tested on: OX1 and OX2

[Ala^11,D-Leu^15]orexin B
selectivity for OX2 over OX1: 400 fold
